Experimental data from ChEMBL document CHEMBL1127897, “Cucurbitacin F derivatives, anti-HIV principles from cowania mexicana” (Bioorg Med Chem Lett, 1994).
In brackets after ≈: the same amount, converted by molar mass.

Key:
H9 [1] = test: Concentration required for […] against acutely infected H9 cells; assay type: functional, cell-based; details: Homo sapiens
[2] = Evaluated for the therapeutic index value of the compound.; assay type: functional
H9 [3] = test: Tested for anti-HIV activity against acutely infected H9 cells, activity expressed as EC50.; assay type: functional, cell-based; details: Homo sapiens

SMILES	IC50 (H9 [1]) [µg/mL]	Therapeutic index [2]	EC50 (H9 [3]) [µg/mL]
CC(C)(O)/C=C/C(=O)[C@](C)(O)[C@H]1[C@H](O)C[C@@]2(C)[C@@H]3CC=C4[C@@H](C[C@H](O)[C@@H](O)C4(C)C)[C@]3(C)C(=O)C[C@]12C [CUCURBITACIN F]	0.16 (≈ 0.308 µM)	2.7	0.06 (≈ 0.116 µM)
CC(C)(O)CCC(=O)[C@](C)(O)C1[C@H](O)C(=O)[C@@]2(C)[C@@H]3CC=C4[C@@H](C[C@H](O)[C@@H](O)C4(C)C)[C@]3(C)C(=O)C[C@]12C (some centres not stated)	38 (≈ 71.1 µM)	15.2	2.5 (≈ 4.68 µM)
CC(C)(O)/C=C/C(=O)[C@](C)(O)C1[C@H](O)C(=O)[C@@]2(C)[C@@H]3CC=C4[C@@H](C[C@H](O)[C@@H](O)C4(C)C)[C@]3(C)C(=O)C[C@]12C (some centres not stated)	5.1 (≈ 9.57 µM)	17	0.3 (≈ 0.563 µM)
CC(C)(O)CCC(=O)[C@](C)(O)C1[C@H](O)C[C@@]2(C)[C@@H]3CC=C4[C@@H](C[C@H](O)[C@@H](O)C4(C)C)[C@]3(C)C(=O)C[C@]12C (some centres not stated)	9.3 (≈ 17.9 µM)	11.6	0.8 (≈ 1.54 µM)
